Patent publication US20040242456A1, “Herbicidal n-alkysulfonamino derivatives” (priority 2001, published 2004)

Experiments:
[1] = tested on: STELLA; test: Pre-emergence herbicidal action; assay type: in vivo, Stellaria; design: key: 1=total damage; 9=no action; settings: 250 g of active ingredient per ha, sprayed immediately after sowing, evaluated after 3 weeks; scale of nine ratings, 1 to 4 good to very good action
Experimental: (§1) Monocotyledonous and dicotyledonous test plants are sown in standard soil in plastic pots. Immediately after sowing, the test compounds, in the form of an aqueous suspension (prepared from a 25% wettable powder (Example F3, b) according to WO 97/34485) or in the form of an emulsion (prepared from a 25% emulsifiable concentrate (Example F1, c)), are applied by spraying, in an amount corresponding to 250 g of active ingredient per ha (500 litres of water per ha). The test plants are then grown in a greenhouse under optimum conditions. After a test duration of 3 weeks, the test is evaluated in accordance with a scale of nine ratings (1=total damage, 9=no action). Ratings of from 1 to 4 (especially from 1 to 3) indicate good to very good herbicidal action.

[2] = tested on: SETARI; test: Pre-emergence herbicidal action; assay type: in vivo, Setaria; design: key: 1=total damage; 9=no action; settings: 250 g of active ingredient per ha, sprayed immediately after sowing, evaluated after 3 weeks; scale of nine ratings, 1 to 4 good to very good action
Experimental: as §1

[3] = tested on: SETARI; test: Post-emergence herbicidal action; assay type: in vivo, Setaria; settings: 250 g of active ingredient per ha, sprayed at 4- to 6-leaf stage, evaluated after about 18 days; scale of nine ratings, 1 to 4 good to very good action
Experimental: (§2) Monocotyledonous and dicotyledonous test plants are grown in standard soil in plastic pots in a greenhouse and, at the 4- to 6-leaf stage, are sprayed with an aqueous suspension of the test compounds of formula I, prepared from a 25% wettable powder (Example F3, b) according to WO 97/34485 or with an emulsion of the test compounds of formula I, prepared from a 25% emulsifiable concentrate (Example F1, c) according to WO 97/34485, in an amount corresponding to 250 g of active ingredient per ha (500 litres of water per ha). The test plants are then grown on in the greenhouse under optimum conditions. After a test duration of about 18 days, the test is evaluated in accordance with a scale of nine ratings (1=total damage, 9=no action). Ratings of from 1 to 4 (especially from 1 to 3) indicate good to very good herbicidal action.

[4] = tested on: DIGITA; test: Post-emergence herbicidal action; assay type: in vivo, Digitaria; design: key: 1=total damage; 9=no action; settings: 250 g of active ingredient per ha, sprayed at 4- to 6-leaf stage, evaluated after about 18 days; scale of nine ratings, 1 to 4 good to very good action
Experimental: as §2

[5] = tested on: PANICU; test: Pre-emergence herbicidal action; assay type: in vivo; design: key: 1=total damage; 9=no action; settings: 250 g of active ingredient per ha, sprayed immediately after sowing, evaluated after 3 weeks; scale of nine ratings, 1 to 4 good to very good action
Experimental: as §1

[6] = tested on: ECHINO; test: Pre-emergence herbicidal action; assay type: in vivo, Echinochloa; design: key: 1=total damage; 9=no action; settings: 250 g of active ingredient per ha, sprayed immediately after sowing, evaluated after 3 weeks; scale of nine ratings, 1 to 4 good to very good action
Experimental: as §1

[7] = tested on: AMARAN; test: Pre-emergence herbicidal action; assay type: in vivo, Amaranthus; design: key: 1=total damage; 9=no action; settings: 250 g of active ingredient per ha, sprayed immediately after sowing, evaluated after 3 weeks; scale of nine ratings, 1 to 4 good to very good action
Experimental: as §1

[8] = tested on: ABUTIL; test: Pre-emergence herbicidal action; assay type: in vivo, Abutilon; design: key: 1=total damage; 9=no action; settings: 250 g of active ingredient per ha, sprayed immediately after sowing, evaluated after 3 weeks; scale of nine ratings, 1 to 4 good to very good action
Experimental: as §1

[9] = tested on: PANICU; test: Post-emergence herbicidal action; assay type: in vivo; design: key: 1=total damage; 9=no action; settings: 250 g of active ingredient per ha, sprayed at 4- to 6-leaf stage, evaluated after about 18 days; scale of nine ratings, 1 to 4 good to very good action
Experimental: as §2

[10] = tested on: ECHINO; test: Post-emergence herbicidal action; assay type: in vivo, Echinochloa; settings: 250 g of active ingredient per ha, sprayed at 4- to 6-leaf stage, evaluated after about 18 days; scale of nine ratings, 1 to 4 good to very good action
Experimental: as §2

[11] = tested on: CHENOP; test: Pre-emergence herbicidal action; assay type: in vivo, Chenopodium; design: key: 1=total damage; 9=no action; settings: 250 g of active ingredient per ha, sprayed immediately after sowing, evaluated after 3 weeks; scale of nine ratings, 1 to 4 good to very good action
Experimental: as §1

[12] = tested on: AMARAN; test: Post-emergence herbicidal action; assay type: in vivo, Amaranthus; design: key: 1=total damage; 9=no action; settings: 250 g of active ingredient per ha, sprayed at 4- to 6-leaf stage, evaluated after about 18 days; scale of nine ratings, 1 to 4 good to very good action
Experimental: as §2

[13] = tested on: ABUTIL; test: Post-emergence herbicidal action; assay type: in vivo, Abutilon; design: key: 1=total damage; 9=no action; settings: 250 g of active ingredient per ha, sprayed at 4- to 6-leaf stage, evaluated after about 18 days; scale of nine ratings, 1 to 4 good to very good action
Experimental: as §2

[14] = tested on: EUPHOR; test: Post-emergence herbicidal action; assay type: in vivo; settings: 250 g of active ingredient per ha, sprayed at 4- to 6-leaf stage, evaluated after about 18 days; scale of nine ratings, 1 to 4 good to very good action
Experimental: as §2

[15] = tested on: CHENOP; test: Post-emergence herbicidal action; assay type: in vivo, Chenopodium; design: key: 1=total damage; 9=no action; settings: 250 g of active ingredient per ha, sprayed at 4- to 6-leaf stage, evaluated after about 18 days; scale of nine ratings, 1 to 4 good to very good action
Experimental: as §2

[16] = tested on: DIGITA; test: Pre-emergence herbicidal action; assay type: in vivo, Digitaria; design: key: 1=total damage; 9=no action; settings: 250 g of active ingredient per ha, sprayed immediately after sowing, evaluated after 3 weeks; scale of nine ratings, 1 to 4 good to very good action
Experimental: as §1

| Compound | Pre-emergence action STELLA, rating [1] | Pre-emergence action SETARI, rating [2] | Post-emergence action SETARI, rating [3] | Post-emergence action DIGITA, rating [4] | Pre-emergence action PANICU, rating [5] | Pre-emergence action ECHINO, rating [6] | Pre-emergence action AMARAN, rating [7] | Pre-emergence action ABUTIL, rating [8] | Post-emergence action PANICU, rating [9] | Post-emergence action ECHINO, rating [10] | Pre-emergence action CHENOP, rating [11] | Post-emergence action AMARAN, rating [12] | Post-emergence action ABUTIL, rating [13] | Post-emergence action EUPHOR, rating [14] | Post-emergence action CHENOP, rating [15] | Pre-emergence action DIGITA, rating [16] |
| --- | --- | --- | --- | --- | --- | --- | --- | --- | --- | --- | --- | --- | --- | --- | --- | --- |
| COCCN(C1=C(C(=O)c2ccc(C(F)(F)F)nc2C)C(=O)C(C)(C)C(=O)C1(C)C)S(C)(=O)=O [Example 1.001] | 4 | 2 | 2 | 1 | 1 | 1 | 1 | 1 | 1 | 2 | 1 | 2 | 1 | 2 | 1 | 1 |
| CCS(=O)(=O)N(CCOC)C1=C(C(=O)c2ccc(C(F)(F)F)nc2C)C(=O)C(C)(C)C(=O)C1(C)C [Example 1.007] | 1 | 1 | 2 | 1 | 1 | 1 | 1 | 1 | 1 | 2 | 1 | 2 | 1 | 2 | 1 | 1 |
| COCCN(C1=C(C(=O)c2ccc(C(F)(F)F)nc2C)C(=O)C2CCC1C2)S(C)(=O)=O (stereo not shown) [Example 1.012] | 4 | 1 | 2 | 2 | 1 | 1 | 1 | 1 | 2 | 2 |  | 2 | 2 | 2 | 1 | 1 |
| CCS(=O)(=O)N(CCOC)C1=C(C(=O)c2ccc(C(F)(F)F)nc2C)C(=O)C2CCC1C2 (stereo not shown) [Example 1.013, Ethanesulfonic acid(2-methoxy-ethyl)-[3-(2-methyl-6-trifluoromethyl-pyridine-3-carbonyl)-4-oxo-bicyclo[3.2.1]oct-2-en-2-yl]-amide] | 1 | 1 | 2 | 2 | 1 | 1 | 1 | 1 | 1 | 2 | 1 | 1 | 2 | 2 | 1 | 1 |
| COCCN(C1=C(C(=O)c2ccc(C(F)(F)F)nc2C)C(=O)C2CCC1C2)S(=O)(=O)c1ccccc1 (stereo not shown) [Example 1.027] | 9 | 2 |  |  | 2 | 3 | 2 | 3 |  |  | 9 |  |  |  |  | 2 |
| CCS(=O)(=O)N(Cc1ccccc1)C1=C(C(=O)c2ccc(C(F)(F)F)nc2C)C(=O)C2CCC1C2 (stereo not shown) [Example 1.065] | 1 | 1 | 5 | 2 | 1 | 1 | 2 | 1 | 2 | 3 | 2 | 2 | 2 | 3 | 1 | 1 |
| Cc1nc(C(F)(F)F)ccc1C(=O)C1=C(N(Cc2ccccc2)S(=O)(=O)C(C)C)C2CCC(C2)C1=O (stereo not shown) [Example 1.067] | 1 | 1 |  |  | 1 | 2 | 2 | 2 |  |  | 1 |  |  |  |  | 1 |
| Cc1nc(C(F)(F)F)ccc1C(=O)C1=C(N(Cc2ccccc2)S(=O)(=O)c2ccccc2)C2CCC(C2)C1=O (stereo not shown) [Example 1.079] | 2 | 6 |  |  | 1 | 2 | 3 | 4 |  |  | 2 |  |  |  |  | 3 |
